# How the values were obtained:
# [1] = In vitro penetration rate across human skin in modified Franz cells; assay type: in vitro ADME; details: 3% suspension in ethanol/pH 7.4 phosphate buffer (0.2 M) 70/30
# Procedure: Penetration rates of HPPs and their parent drugs through human skin were measured in vitro by modified Franz cells. A Franz cell had two chambers, the top sample chamber and the bottom receiving chamber. The human skin tissue (360-400 μm thick) that separated the top and the receiving chambers was isolated from the anterior or posterior thigh areas.
# A compound tested (0.5 mL, 3% in a mixture of ethanol and phosphate buffer (0.2M, pH 7.4) (v/v, 70/30)) was added to the sample chamber of a Franz cell. The receiving chamber contains 2 ml of 2% bovine serum albumin in saline which was stirred at 600 rpm. The amount of the tested compound penetrating the skin was determined by high-performance liquid chromatography (HPLC) method.
# The lowest detectable apparent flux values in this method was 1 μg/cm^2/h.
# [2] = tested on: herpes simplex virus Type II; assay: Anti-Herpes activity, treated for 3 days before HSV infection; assay type: in vivo; details: guinea pigs
# Procedure: (§1) The evaluation of anti-Herpes activity of these prodrugs was carried out using the method described by Kern, et al. [Antimicrob. Agents Chemother. 14, 817, (1978)]. In each experiment, female guinea pigs (n=10) were anesthetized. […] Virus replication was monitored by determining the amount of virus recovered with vaginal swabs taken on day 7 after infection. […] The percent Lesion Inhibition was calculated as follows: 100-[(Sum of maximum lesion scores of treated group divided by the Sum of the scores of infected control)×100] (Table 5).
# [3] = tested on: herpes simplex virus Type I; assay: as above; assay type: in vivo; details: guinea pigs
# Procedure: as §1
# [4] = tested on: herpes simplex virus Type II; assay: Anti-Herpes activity, treated for 5 days, first treatment just after HSV infection; assay type: in vivo; details: guinea pigs
# Procedure: (§2) The evaluation of anti-Herpes activity of these prodrugs was carried out using the method described by Kern, et al. [Antimicrob. Agents Chemother. 14, 817, (1978)].
# (§3) In the second experiment, female guinea pigs (n=10) were anesthetized. Herpes simplex virus (Type I or Type II, about 10^5 plaque forming units were used) was applied intravaginally to the guinea pigs using a cotton swab. […] Virus replication was monitored by determining the amount of virus recovered with vaginal swabs taken on day 7 after infection. External lesions were scored daily for ten days using the following scale: 0, no lesion; 1, redness and swelling; 2, a few small vesicles; 3, several large vesicles; 4, large ulcers and necrosis; and 5, paralysis. The percent Lesion Inhibition was calculated as follows: 100−[(Sum of maximum lesion scores of treated group divided by the Sum of the scores of infected control)×100] (Table 6).
# [5] = tested on: herpes simplex virus Type I; assay: as above; assay type: in vivo; details: guinea pigs
# Procedure: as §2, §3
# [6] = tested on: herpes simplex virus Type II; assay: Anti-Herpes activity, treated for 5 days, first treatment 5 days after HSV infection; assay type: in vivo; details: guinea pigs
# Procedure: as §2
# (§4) In the third experiment, female guinea pigs (n=10) were anesthetized. The guinea pigs were then infected with herpes simplex virus (type I or Type II, about 10^5 plaque forming units were used) intravaginally using a cotton swab. […] External lesions were scored daily for ten days using the following scale: 0, no lesion; 1, redness and swelling; 2, a few small vesicles; 3, several large vesicles; 4, large ulcers and necrosis; and 5, paralysis. The percent Lesion Inhibition was calculated as follows: 100−[(Sum of maximum lesion scores of treated group divided by the Sum of the scores of infected control)×100] (Table 7).
# [7] = tested on: herpes simplex virus Type I; assay: as above; assay type: in vivo; details: guinea pigs
# Procedure: as §2, §4
# interferon production [8] = assay: Interferon inducing activity in guinea pigs (serum protection of fibroblasts from mengovirus); assay type: in vivo; details: serum 18 hours after treatment
# interferon production [9] = assay: as above; assay type: in vivo; details: serum 18 hours after treatment; remark: listed apart in the source
# Procedure: Without being bound by any mechanism, the ability to induce interferon production of the pro-drugs of the invention was evaluated in guinea pigs (n=10). Untreated guinea pigs provided controls.
# Each test drug was administered to real back skin of a guinea pig at a specific dose of about 0.5-4.5 mg/kg respectively.
# Each treated and control guinea pig was bled 18 hours after drug treatment and its serum was assayed for interferon activity. The serum was diluted and incubated with guinea pig fibroblast cells at 37° C. overnight in 96 well microtiter plates. The incubated cells were then challenged with an inoculum of mengovirus that was sufficient to kill untreated cells in two days. Two days after such challenge, the cells were examined both microscopically and after staining with crystal violet to determine whether the cells remained intact.
# Table 4 contains the results of the study with activity/ml indicating the highest dilute on of serum that protected cells from virus challenge. Untreated guinea pigs provided controls.
# [10] = 0.5 mg/kg once per day for 3 days before HSV infection
# [11] = 1.5 mg/kg once per day for 3 days before HSV infection
# [12] = 4.5 mg/kg once per day for 3 days before HSV infection
# [13] = 0.5 mg/kg once per day for 5 days
# [14] = 1.5 mg/kg once per day for 5 days
# [15] = 4.5 mg/kg once per day for 5 days
compound,measurement,setting,value
"Cl.Nc1nc2ccccc2c2c1ncn2Cc1ccccc1 [1-benzyl-1H-imidazo[4,5-c]quinolin-4-amine hydrochloride, reference compound]",In vitro Penetration Rate of Parent compounds (apparent flux),[1],0.005 mg/cm^2/h
"CCCCn1cnc2c(N)nc3ccccc3c21.Cl [1-butyl-1H-imidazo[4,5-c]quinolin-4-amine hydrochloride, reference compound]",In vitro Penetration Rate of Parent compounds (apparent flux),[1],0.005 mg/cm^2/h
"CCCCCCn1cnc2c(N)nc3ccccc3c21.Cl [1-hexyl-1H-imidazo[4,5-c]quinolin-4-amine hydrochloride, reference compound]","% Lesion inhibition of the parent drug, intravaginal, Herpes type II",[2]; [10],5%
same,"% Lesion inhibition of the parent drug, transdermal, Herpes type II",[2]; [10],2%
same,"% Lesion inhibition of the parent drug, intravaginal, Herpes type II",[2]; [11],18%
same,"% Lesion inhibition of the parent drug, transdermal, Herpes type II",[2]; [11],3%
same,"% Lesion inhibition of the parent drug, intravaginal, Herpes type II",[2]; [12],81%
same,"% Lesion inhibition of the parent drug, transdermal, Herpes type II",[2]; [12],45%
same,"% Lesion inhibition of the parent drug, intravaginal, Herpes type I",[3]; [10],4%
same,"% Lesion inhibition of the parent drug, transdermal, Herpes type I",[3]; [10],2%
same,"% Lesion inhibition of the parent drug, intravaginal, Herpes type I",[3]; [11],16%
same,"% Lesion inhibition of the parent drug, transdermal, Herpes type I",[3]; [11],3%
same,"% Lesion inhibition of the parent drug, intravaginal, Herpes type I",[3]; [12],80%
same,"% Lesion inhibition of the parent drug, transdermal, Herpes type I",[3]; [12],42%
same,"% Lesion inhibition of the parent drug, intravaginal, Herpes type II",[4]; [13],2%
same,"% Lesion inhibition of the parent drug, transdermal, Herpes type II",[4]; [13],2%
same,"% Lesion inhibition of the parent drug, intravaginal, Herpes type II",[4]; [14],11%
same,"% Lesion inhibition of the parent drug, transdermal, Herpes type II",[4]; [14],6%
same,"% Lesion inhibition of the parent drug, intravaginal, Herpes type II",[4]; [15],71%
same,"% Lesion inhibition of the parent drug, transdermal, Herpes type II",[4]; [15],41%
same,"% Lesion inhibition of the parent drug, intravaginal, Herpes type I",[5]; [13],2%
same,"% Lesion inhibition of the parent drug, transdermal, Herpes type I",[5]; [13],2%
same,"% Lesion inhibition of the parent drug, intravaginal, Herpes type I",[5]; [14],11%
same,"% Lesion inhibition of the parent drug, transdermal, Herpes type I",[5]; [14],5%
same,"% Lesion inhibition of the parent drug, intravaginal, Herpes type I",[5]; [15],68%
same,"% Lesion inhibition of the parent drug, transdermal, Herpes type I",[5]; [15],43%
same,"% Lesion inhibition of the parent drug, intravaginal, Herpes type II",[6]; [13],2%
same,"% Lesion inhibition of the parent drug, transdermal, Herpes type II",[6]; [13],2%
same,"% Lesion inhibition of the parent drug, intravaginal, Herpes type II",[6]; [14],2%
same,"% Lesion inhibition of the parent drug, transdermal, Herpes type II",[6]; [14],2%
same,"% Lesion inhibition of the parent drug, intravaginal, Herpes type II",[6]; [15],37%
same,"% Lesion inhibition of the parent drug, transdermal, Herpes type II",[6]; [15],21%
same,"% Lesion inhibition of the parent drug, intravaginal, Herpes type I",[7]; [13],2%
same,"% Lesion inhibition of the parent drug, transdermal, Herpes type I",[7]; [13],2%
same,"% Lesion inhibition of the parent drug, intravaginal, Herpes type I",[7]; [14],2%
same,"% Lesion inhibition of the parent drug, transdermal, Herpes type I",[7]; [14],2%
same,"% Lesion inhibition of the parent drug, intravaginal, Herpes type I",[7]; [15],35%
same,"% Lesion inhibition of the parent drug, transdermal, Herpes type I",[7]; [15],18%
same,"Interferon level of the parent drug, intravaginal",interferon production [8]; 0.5 mg/kg once,286 activity/ml
same,"Interferon level of the parent drug, transdermal",interferon production [8]; 0.5 mg/kg once,178 activity/ml
same,"Interferon level of the parent drug, intravaginal",interferon production [8]; 1.5 mg/kg once,"1,562 activity/ml"
same,"Interferon level of the parent drug, transdermal",interferon production [8]; 1.5 mg/kg once,565 activity/ml
same,"Interferon level of the parent drug, intravaginal",interferon production [8]; 4.5 mg/kg once,"24,786 activity/ml"
same,"Interferon level of the parent drug, transdermal",interferon production [8]; 4.5 mg/kg once,"1,945 activity/ml"
"CCCCCCn1cnc2c(NC(=O)CN(C)C)nc3ccccc3c21.Cl [N,N-dimethylglycine 1-n-hexyl-1H-imidazo[4,5-c]quinolin-4-amide hydrochloride]","Interferon level of the HPP, transdermal",interferon production [9]; 0.5 mg/kg once,"11,756 activity/ml"
same,"Interferon level of the HPP, transdermal",interferon production [9]; 1.5 mg/kg once,"22,537 activity/ml"
same,"Interferon level of the HPP, transdermal",interferon production [9]; 4.5 mg/kg once,"61,758 activity/ml"
same,"% Lesion inhibition of the HPP, intravaginal, Herpes type II",[2]; [10],68%
same,"% Lesion inhibition of the HPP, transdermal, Herpes type II",[2]; [10],40%
same,"% Lesion inhibition of the HPP, intravaginal, Herpes type II",[2]; [11],90%
same,"% Lesion inhibition of the HPP, transdermal, Herpes type II",[2]; [11],68%
same,"% Lesion inhibition of the HPP, intravaginal, Herpes type II",[2]; [12],95%
same,"% Lesion inhibition of the HPP, transdermal, Herpes type II",[2]; [12],93%
same,"% Lesion inhibition of the HPP, intravaginal, Herpes type I",[3]; [10],67%
same,"% Lesion inhibition of the HPP, transdermal, Herpes type I",[3]; [10],38%
same,"% Lesion inhibition of the HPP, intravaginal, Herpes type I",[3]; [11],91%
same,"% Lesion inhibition of the HPP, transdermal, Herpes type I",[3]; [11],67%
same,"% Lesion inhibition of the HPP, intravaginal, Herpes type I",[3]; [12],95%
same,"% Lesion inhibition of the HPP, transdermal, Herpes type I",[3]; [12],91%
same,"% Lesion inhibition of the HPP, intravaginal, Herpes type II",[4]; [13],68%
same,"% Lesion inhibition of the HPP, transdermal, Herpes type II",[4]; [13],38%
same,"% Lesion inhibition of the HPP, intravaginal, Herpes type II",[4]; [14],90%
same,"% Lesion inhibition of the HPP, transdermal, Herpes type II",[4]; [14],75%
same,"% Lesion inhibition of the HPP, intravaginal, Herpes type II",[4]; [15],95%
same,"% Lesion inhibition of the HPP, transdermal, Herpes type II",[4]; [15],91%
same,"% Lesion inhibition of the HPP, intravaginal, Herpes type I",[5]; [13],67%
same,"% Lesion inhibition of the HPP, transdermal, Herpes type I",[5]; [13],37%
same,"% Lesion inhibition of the HPP, intravaginal, Herpes type I",[5]; [14],91%
same,"% Lesion inhibition of the HPP, transdermal, Herpes type I",[5]; [14],73%
same,"% Lesion inhibition of the HPP, intravaginal, Herpes type I",[5]; [15],95%
same,"% Lesion inhibition of the HPP, transdermal, Herpes type I",[5]; [15],90%
same,"% Lesion inhibition of the HPP, intravaginal, Herpes type II",[6]; [13],28%
same,"% Lesion inhibition of the HPP, transdermal, Herpes type II",[6]; [13],25%
same,"% Lesion inhibition of the HPP, intravaginal, Herpes type II",[6]; [14],65%
same,"% Lesion inhibition of the HPP, transdermal, Herpes type II",[6]; [14],55%
same,"% Lesion inhibition of the HPP, intravaginal, Herpes type II",[6]; [15],85%
same,"% Lesion inhibition of the HPP, transdermal, Herpes type II",[6]; [15],81%
same,"% Lesion inhibition of the HPP, intravaginal, Herpes type I",[7]; [13],31%
same,"% Lesion inhibition of the HPP, transdermal, Herpes type I",[7]; [13],28%
same,"% Lesion inhibition of the HPP, intravaginal, Herpes type I",[7]; [14],62%
same,"% Lesion inhibition of the HPP, transdermal, Herpes type I",[7]; [14],52%
same,"% Lesion inhibition of the HPP, intravaginal, Herpes type I",[7]; [15],83%
same,"% Lesion inhibition of the HPP, transdermal, Herpes type I",[7]; [15],82%
same,"Interferon level of the HPP, intravaginal",interferon production [8]; 0.5 mg/kg once,"21,857 activity/ml"
same,"Interferon level of the HPP, intravaginal",interferon production [8]; 1.5 mg/kg once,"57,147 activity/ml"
same,"Interferon level of the HPP, intravaginal",interferon production [8]; 4.5 mg/kg once,"78,569 activity/ml"
